Active and inactive are the calls of the source.
molecular target: Activin receptor type-2B (Homo sapiens, UniProt Q13705); conditions: not given
Note: in the data inactive means no Kd found up to 30 µM.

Chain of Activin receptor type-2B (Q13705 whole entry): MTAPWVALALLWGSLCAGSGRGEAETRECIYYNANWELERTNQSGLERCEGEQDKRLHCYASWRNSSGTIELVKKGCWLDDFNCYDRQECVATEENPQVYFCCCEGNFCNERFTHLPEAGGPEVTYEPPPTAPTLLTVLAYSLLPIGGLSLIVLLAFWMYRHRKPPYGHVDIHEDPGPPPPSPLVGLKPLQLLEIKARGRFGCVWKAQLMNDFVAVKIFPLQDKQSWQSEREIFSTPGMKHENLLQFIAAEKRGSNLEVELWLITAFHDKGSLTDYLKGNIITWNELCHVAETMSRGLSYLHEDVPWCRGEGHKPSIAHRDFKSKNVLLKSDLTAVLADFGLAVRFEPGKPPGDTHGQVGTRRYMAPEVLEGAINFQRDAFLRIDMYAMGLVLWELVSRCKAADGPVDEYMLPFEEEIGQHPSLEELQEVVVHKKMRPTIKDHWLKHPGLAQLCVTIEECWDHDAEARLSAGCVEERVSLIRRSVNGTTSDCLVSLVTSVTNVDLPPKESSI

| SMILES | Kd |
| --- | --- |
| CNC(=O)CN1CCC(Oc2cc3c(Nc4cccc(Cl)c4F)ncnc3cc2OC)CC1 [SAPITINIB] | > 30 µM (inactive) |
| C[C@@H](c1ccc2nccn2c1)n1nnc2ncc(-c3cnn(C)c3)nc21 [SAVOLITINIB] | > 30 µM (inactive) |
| CN1CCC(CNc2ccc3ncc(-c4cccc(OC(F)(F)F)c4)n3n2)CC1 [SGI-1776] | > 30 µM (inactive) |

molecular target: T1, Peroxisomal acyl-coenzyme A oxidase 3 (Homo sapiens, UniProt O15254); conditions: not given
T1 sequence (O15254 whole entry): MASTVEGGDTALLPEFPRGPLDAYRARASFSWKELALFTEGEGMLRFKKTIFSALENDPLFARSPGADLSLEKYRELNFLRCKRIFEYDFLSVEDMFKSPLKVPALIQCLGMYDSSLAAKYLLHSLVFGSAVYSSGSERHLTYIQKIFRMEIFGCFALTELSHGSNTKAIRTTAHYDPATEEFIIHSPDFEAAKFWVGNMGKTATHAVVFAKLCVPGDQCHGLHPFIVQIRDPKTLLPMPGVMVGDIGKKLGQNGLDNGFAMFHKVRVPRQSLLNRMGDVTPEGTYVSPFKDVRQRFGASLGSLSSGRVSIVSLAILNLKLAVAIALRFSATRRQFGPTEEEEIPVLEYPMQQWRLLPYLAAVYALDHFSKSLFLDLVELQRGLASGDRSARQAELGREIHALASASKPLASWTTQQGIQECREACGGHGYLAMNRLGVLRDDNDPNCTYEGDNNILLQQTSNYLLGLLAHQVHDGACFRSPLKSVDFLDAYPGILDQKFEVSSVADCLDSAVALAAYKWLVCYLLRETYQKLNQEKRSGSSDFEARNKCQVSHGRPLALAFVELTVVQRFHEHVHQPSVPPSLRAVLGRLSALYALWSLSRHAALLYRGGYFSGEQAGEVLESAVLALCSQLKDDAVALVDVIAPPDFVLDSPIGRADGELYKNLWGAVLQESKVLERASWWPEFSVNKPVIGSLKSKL

| SMILES | Kd |
| --- | --- |
| CNC(=O)CN1CCC(Oc2cc3c(Nc4cccc(Cl)c4F)ncnc3cc2OC)CC1 [SAPITINIB] | > 30 µM (inactive) |
| C[C@@H](c1ccc2nccn2c1)n1nnc2ncc(-c3cnn(C)c3)nc21 [SAVOLITINIB] | > 30 µM (inactive) |
| CN1CCC(CNc2ccc3ncc(-c4cccc(OC(F)(F)F)c4)n3n2)CC1 [SGI-1776] | > 30 µM (inactive) |

molecular target: Tyrosine-protein kinase SYK (Homo sapiens, UniProt P43405); conditions: not given

| SMILES | Kd |
| --- | --- |
| CNC(=O)CN1CCC(Oc2cc3c(Nc4cccc(Cl)c4F)ncnc3cc2OC)CC1 [SAPITINIB] | > 30 µM (inactive) |
| C[C@@H](c1ccc2nccn2c1)n1nnc2ncc(-c3cnn(C)c3)nc21 [SAVOLITINIB] | > 30 µM (inactive) |
| CN1CCC(CNc2ccc3ncc(-c4cccc(OC(F)(F)F)c4)n3n2)CC1 [SGI-1776] | > 30 µM (inactive) |

molecular target: Serine/threonine-protein kinase MRCK beta (Homo sapiens, UniProt Q9Y5S2); conditions: not given
Sequence (Q9Y5S2 whole entry): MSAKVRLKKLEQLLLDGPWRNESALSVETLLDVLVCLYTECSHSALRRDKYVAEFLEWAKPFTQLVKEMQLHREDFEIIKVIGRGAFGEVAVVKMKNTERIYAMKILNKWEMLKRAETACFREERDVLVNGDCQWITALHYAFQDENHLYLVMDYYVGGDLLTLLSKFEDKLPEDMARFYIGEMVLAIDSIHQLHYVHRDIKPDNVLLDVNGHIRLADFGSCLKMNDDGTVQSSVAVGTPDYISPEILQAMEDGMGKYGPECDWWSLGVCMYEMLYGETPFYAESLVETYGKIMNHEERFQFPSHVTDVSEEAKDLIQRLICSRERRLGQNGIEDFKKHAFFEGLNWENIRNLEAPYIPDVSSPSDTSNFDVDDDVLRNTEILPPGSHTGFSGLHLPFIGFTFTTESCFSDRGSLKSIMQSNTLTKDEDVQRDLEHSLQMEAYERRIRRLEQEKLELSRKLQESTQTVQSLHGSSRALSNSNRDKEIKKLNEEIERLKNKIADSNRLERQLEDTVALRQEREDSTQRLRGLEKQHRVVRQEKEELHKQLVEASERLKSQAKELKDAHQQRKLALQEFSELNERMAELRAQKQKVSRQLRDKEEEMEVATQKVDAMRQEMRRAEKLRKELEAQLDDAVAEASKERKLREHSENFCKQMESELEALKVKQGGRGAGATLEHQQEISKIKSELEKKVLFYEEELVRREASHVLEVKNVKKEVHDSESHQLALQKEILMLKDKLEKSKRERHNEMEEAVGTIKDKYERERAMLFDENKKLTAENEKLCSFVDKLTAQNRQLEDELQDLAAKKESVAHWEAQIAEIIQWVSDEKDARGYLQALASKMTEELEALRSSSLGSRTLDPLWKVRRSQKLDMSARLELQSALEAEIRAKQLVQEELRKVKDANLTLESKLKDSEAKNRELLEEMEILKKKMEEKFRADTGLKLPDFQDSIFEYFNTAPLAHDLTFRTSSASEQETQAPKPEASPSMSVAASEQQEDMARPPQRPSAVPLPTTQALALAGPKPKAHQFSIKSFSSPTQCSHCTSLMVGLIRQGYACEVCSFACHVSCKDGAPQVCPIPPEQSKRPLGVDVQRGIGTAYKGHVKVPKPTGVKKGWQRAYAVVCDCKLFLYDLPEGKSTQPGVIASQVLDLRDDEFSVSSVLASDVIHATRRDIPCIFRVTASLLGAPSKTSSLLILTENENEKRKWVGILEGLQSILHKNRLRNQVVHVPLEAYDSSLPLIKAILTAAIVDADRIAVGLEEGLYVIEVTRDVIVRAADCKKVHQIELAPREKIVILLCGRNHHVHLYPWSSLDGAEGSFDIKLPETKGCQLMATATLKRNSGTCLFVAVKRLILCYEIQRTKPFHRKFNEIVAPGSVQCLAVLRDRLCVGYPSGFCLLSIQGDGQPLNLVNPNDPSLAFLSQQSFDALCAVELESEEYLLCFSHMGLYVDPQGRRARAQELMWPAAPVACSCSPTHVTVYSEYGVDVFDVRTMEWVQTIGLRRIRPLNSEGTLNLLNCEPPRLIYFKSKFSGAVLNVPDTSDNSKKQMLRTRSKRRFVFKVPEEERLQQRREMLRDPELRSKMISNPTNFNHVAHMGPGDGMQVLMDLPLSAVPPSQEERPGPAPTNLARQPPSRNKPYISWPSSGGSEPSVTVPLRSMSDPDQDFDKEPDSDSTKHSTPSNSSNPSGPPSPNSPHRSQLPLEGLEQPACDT

| SMILES | Kd |
| --- | --- |
| CNC(=O)CN1CCC(Oc2cc3c(Nc4cccc(Cl)c4F)ncnc3cc2OC)CC1 [SAPITINIB] | > 30 µM (inactive) |
| C[C@@H](c1ccc2nccn2c1)n1nnc2ncc(-c3cnn(C)c3)nc21 [SAVOLITINIB] | > 30 µM (inactive) |
| CN1CCC(CNc2ccc3ncc(-c4cccc(OC(F)(F)F)c4)n3n2)CC1 [SGI-1776] | > 30 µM (inactive) |

molecular target: Cyclin-dependent kinase 4 (Homo sapiens, UniProt P11802); conditions: not given
Sequence (P11802 whole entry): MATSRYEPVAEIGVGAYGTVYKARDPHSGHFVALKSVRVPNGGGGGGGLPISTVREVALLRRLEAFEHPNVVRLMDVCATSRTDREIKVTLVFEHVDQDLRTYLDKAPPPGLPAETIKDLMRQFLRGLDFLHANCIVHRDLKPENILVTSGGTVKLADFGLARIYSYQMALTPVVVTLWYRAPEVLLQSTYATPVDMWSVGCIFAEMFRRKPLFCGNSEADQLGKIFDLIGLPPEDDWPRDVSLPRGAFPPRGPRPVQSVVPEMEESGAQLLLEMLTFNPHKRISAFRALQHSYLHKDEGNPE

| SMILES | Kd |
| --- | --- |
| CNC(=O)CN1CCC(Oc2cc3c(Nc4cccc(Cl)c4F)ncnc3cc2OC)CC1 [SAPITINIB] | > 30 µM (inactive) |
| C[C@@H](c1ccc2nccn2c1)n1nnc2ncc(-c3cnn(C)c3)nc21 [SAVOLITINIB] | > 30 µM (inactive) |
| CN1CCC(CNc2ccc3ncc(-c4cccc(OC(F)(F)F)c4)n3n2)CC1 [SGI-1776] | > 30 µM (inactive) |

molecular target: T2, Glycogen phosphorylase, liver form (Homo sapiens, UniProt P06737); type: subcellular, K-562, COLO 205, SK-N-BE(2) and MV-4-11, Cell lysate; conditions: read-out: Kd apparent
T2 sequence (P06737 whole entry): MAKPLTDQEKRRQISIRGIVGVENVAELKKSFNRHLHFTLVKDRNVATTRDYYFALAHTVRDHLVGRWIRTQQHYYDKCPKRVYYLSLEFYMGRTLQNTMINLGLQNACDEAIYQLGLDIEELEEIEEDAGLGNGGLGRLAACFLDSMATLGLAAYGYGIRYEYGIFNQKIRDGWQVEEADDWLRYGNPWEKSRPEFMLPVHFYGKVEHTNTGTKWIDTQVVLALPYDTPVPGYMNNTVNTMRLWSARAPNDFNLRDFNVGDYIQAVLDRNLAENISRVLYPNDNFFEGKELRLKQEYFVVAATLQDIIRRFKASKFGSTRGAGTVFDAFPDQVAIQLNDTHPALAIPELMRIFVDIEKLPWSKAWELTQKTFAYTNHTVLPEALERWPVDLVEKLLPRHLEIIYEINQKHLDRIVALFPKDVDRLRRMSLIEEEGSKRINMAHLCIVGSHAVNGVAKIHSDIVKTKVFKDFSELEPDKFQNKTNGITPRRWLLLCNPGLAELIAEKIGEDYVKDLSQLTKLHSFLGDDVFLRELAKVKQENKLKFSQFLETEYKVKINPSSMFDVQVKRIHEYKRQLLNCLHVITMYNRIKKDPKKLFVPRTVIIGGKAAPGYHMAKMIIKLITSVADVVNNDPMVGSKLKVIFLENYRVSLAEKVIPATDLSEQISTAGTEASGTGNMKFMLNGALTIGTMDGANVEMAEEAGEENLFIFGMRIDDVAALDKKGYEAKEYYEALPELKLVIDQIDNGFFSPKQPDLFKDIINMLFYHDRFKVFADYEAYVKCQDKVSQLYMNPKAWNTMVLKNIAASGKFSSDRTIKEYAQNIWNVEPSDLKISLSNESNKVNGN

| SMILES | Kd |
| --- | --- |
| CNC(=O)CN1CCC(Oc2cc3c(Nc4cccc(Cl)c4F)ncnc3cc2OC)CC1 [SAPITINIB] | > 30 µM (inactive) |
| C[C@@H](c1ccc2nccn2c1)n1nnc2ncc(-c3cnn(C)c3)nc21 [SAVOLITINIB] | > 30 µM (inactive) |
| CN1CCC(CNc2ccc3ncc(-c4cccc(OC(F)(F)F)c4)n3n2)CC1 [SGI-1776] | > 30 µM (inactive) |

molecular target: Mitogen-activated protein kinase 8 (Homo sapiens, UniProt P45983); conditions: not given
Sequence (P45983 whole entry): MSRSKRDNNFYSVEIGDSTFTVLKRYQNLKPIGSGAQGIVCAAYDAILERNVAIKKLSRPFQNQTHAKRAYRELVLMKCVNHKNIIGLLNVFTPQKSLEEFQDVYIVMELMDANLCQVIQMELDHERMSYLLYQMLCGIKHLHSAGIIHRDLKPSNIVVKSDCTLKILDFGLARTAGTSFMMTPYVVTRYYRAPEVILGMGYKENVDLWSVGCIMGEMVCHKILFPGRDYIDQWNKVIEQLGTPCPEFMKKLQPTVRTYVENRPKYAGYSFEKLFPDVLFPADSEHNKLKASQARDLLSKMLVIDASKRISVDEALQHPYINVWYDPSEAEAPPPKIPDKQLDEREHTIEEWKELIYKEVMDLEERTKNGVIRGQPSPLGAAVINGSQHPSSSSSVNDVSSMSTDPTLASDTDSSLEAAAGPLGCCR

| SMILES | Kd |
| --- | --- |
| CNC(=O)CN1CCC(Oc2cc3c(Nc4cccc(Cl)c4F)ncnc3cc2OC)CC1 [SAPITINIB] | > 30 µM (inactive) |
| C[C@@H](c1ccc2nccn2c1)n1nnc2ncc(-c3cnn(C)c3)nc21 [SAVOLITINIB] | > 30 µM (inactive) |
| CN1CCC(CNc2ccc3ncc(-c4cccc(OC(F)(F)F)c4)n3n2)CC1 [SGI-1776] | > 30 µM (inactive) |

molecular target: T3, Delta(24)-sterol reductase (Homo sapiens, UniProt Q15392); conditions: not given
T3 sequence (Q15392 whole entry): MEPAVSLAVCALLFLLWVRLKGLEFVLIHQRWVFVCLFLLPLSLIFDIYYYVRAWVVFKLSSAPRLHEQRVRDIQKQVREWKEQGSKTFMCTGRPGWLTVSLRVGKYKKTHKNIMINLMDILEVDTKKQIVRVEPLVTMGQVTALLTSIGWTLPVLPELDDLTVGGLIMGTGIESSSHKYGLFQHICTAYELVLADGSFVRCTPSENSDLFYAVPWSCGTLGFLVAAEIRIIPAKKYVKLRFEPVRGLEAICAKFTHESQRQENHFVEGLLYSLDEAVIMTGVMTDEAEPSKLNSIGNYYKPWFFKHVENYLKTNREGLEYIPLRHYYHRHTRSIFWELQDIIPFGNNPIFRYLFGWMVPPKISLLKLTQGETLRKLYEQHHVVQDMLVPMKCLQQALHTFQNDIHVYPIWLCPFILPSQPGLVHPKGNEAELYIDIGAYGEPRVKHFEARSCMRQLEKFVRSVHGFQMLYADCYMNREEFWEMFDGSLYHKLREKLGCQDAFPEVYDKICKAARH

| SMILES | Kd |
| --- | --- |
| CNC(=O)CN1CCC(Oc2cc3c(Nc4cccc(Cl)c4F)ncnc3cc2OC)CC1 [SAPITINIB] | > 30 µM (inactive) |
| C[C@@H](c1ccc2nccn2c1)n1nnc2ncc(-c3cnn(C)c3)nc21 [SAVOLITINIB] | > 30 µM (inactive) |
| CN1CCC(CNc2ccc3ncc(-c4cccc(OC(F)(F)F)c4)n3n2)CC1 [SGI-1776] | > 30 µM (inactive) |

molecular target: cAMP-dependent protein kinase catalytic subunit beta (Homo sapiens, UniProt P22694); conditions: not given

| SMILES | Kd |
| --- | --- |
| CNC(=O)CN1CCC(Oc2cc3c(Nc4cccc(Cl)c4F)ncnc3cc2OC)CC1 [SAPITINIB] | > 30 µM (inactive) |
| C[C@@H](c1ccc2nccn2c1)n1nnc2ncc(-c3cnn(C)c3)nc21 [SAVOLITINIB] | > 30 µM (inactive) |
| CN1CCC(CNc2ccc3ncc(-c4cccc(OC(F)(F)F)c4)n3n2)CC1 [SGI-1776] | > 30 µM (inactive) |

molecular target: Tyrosine-protein kinase Fyn (Homo sapiens, UniProt P06241); conditions: not given
Sequence (P06241 whole entry): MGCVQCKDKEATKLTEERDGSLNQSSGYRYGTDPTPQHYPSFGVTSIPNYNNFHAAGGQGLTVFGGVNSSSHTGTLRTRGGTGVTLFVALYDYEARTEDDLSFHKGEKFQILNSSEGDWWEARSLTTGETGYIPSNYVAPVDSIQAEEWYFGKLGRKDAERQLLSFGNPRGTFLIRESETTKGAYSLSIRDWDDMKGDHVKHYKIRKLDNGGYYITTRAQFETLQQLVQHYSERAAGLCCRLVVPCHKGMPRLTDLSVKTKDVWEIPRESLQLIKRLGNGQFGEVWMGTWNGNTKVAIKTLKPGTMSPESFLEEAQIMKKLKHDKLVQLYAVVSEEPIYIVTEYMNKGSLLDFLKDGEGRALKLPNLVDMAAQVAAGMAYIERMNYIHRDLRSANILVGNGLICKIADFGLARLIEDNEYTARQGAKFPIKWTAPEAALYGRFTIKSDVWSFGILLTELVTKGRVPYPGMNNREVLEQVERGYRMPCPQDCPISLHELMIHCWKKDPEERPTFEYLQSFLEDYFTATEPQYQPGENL

| SMILES | Kd |
| --- | --- |
| CNC(=O)CN1CCC(Oc2cc3c(Nc4cccc(Cl)c4F)ncnc3cc2OC)CC1 [SAPITINIB] | > 30 µM (inactive) |
| C[C@@H](c1ccc2nccn2c1)n1nnc2ncc(-c3cnn(C)c3)nc21 [SAVOLITINIB] | > 30 µM (inactive) |
| CN1CCC(CNc2ccc3ncc(-c4cccc(OC(F)(F)F)c4)n3n2)CC1 [SGI-1776] | > 30 µM (inactive) |

molecular target: T4, Succinate--CoA ligase [ADP-forming] subunit beta, mitochondrial (Homo sapiens, UniProt Q9P2R7); conditions: not given
T4 sequence (Q9P2R7 whole entry): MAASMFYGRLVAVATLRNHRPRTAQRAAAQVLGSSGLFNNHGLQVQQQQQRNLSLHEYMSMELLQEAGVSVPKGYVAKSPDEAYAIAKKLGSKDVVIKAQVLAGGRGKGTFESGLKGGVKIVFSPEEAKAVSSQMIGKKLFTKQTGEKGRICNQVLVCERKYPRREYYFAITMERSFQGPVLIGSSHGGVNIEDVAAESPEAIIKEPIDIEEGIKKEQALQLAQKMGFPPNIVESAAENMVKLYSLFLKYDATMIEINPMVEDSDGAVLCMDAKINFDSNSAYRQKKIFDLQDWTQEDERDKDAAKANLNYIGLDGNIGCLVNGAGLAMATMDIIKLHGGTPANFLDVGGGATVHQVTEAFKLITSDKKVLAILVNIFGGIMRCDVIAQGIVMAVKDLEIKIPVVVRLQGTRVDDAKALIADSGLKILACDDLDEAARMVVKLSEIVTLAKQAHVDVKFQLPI

| SMILES | Kd |
| --- | --- |
| CNC(=O)CN1CCC(Oc2cc3c(Nc4cccc(Cl)c4F)ncnc3cc2OC)CC1 [SAPITINIB] | > 30 µM (inactive) |
| C[C@@H](c1ccc2nccn2c1)n1nnc2ncc(-c3cnn(C)c3)nc21 [SAVOLITINIB] | > 30 µM (inactive) |
| CN1CCC(CNc2ccc3ncc(-c4cccc(OC(F)(F)F)c4)n3n2)CC1 [SGI-1776] | > 30 µM (inactive) |

Source: ChEMBL document CHEMBL3991601, “The target landscape of clinical kinase drugs” (Science, 2017)
